# Measured values as given in patent US12139531B2, “Compositions and methods useful in promoting milk production” (The Regents of the University of California, priority 2019, dated 2024).
# “Also recorded” adds a separate entry of the source.
# Tests used:
# [1] = system: HEK-293 cells; assay: Dot blot dilution assay of ROBO1-Ig5 secretion into media of transfected HEK-293 cells; type: cell-based; conditions: heparin 300 ng/ml, media days two, four, six
# Text: Three recombinant ROBO1 ECD constructs were constructed: one comprising two immunoglobulin (Ig) domains (ROBO1-Ig2), another comprising all five Ig domains (ROBO1-Ig5), and another comprising the entire extracellular domain (ROBO1-Ecto) (FIG. 6A). In other constructs, HA (hemagglutinin), Myc, and human and mouse immunoglobulin Fc were fused to the Robo1 ECDs (FIG. 6A, 5F right). Extracellular domains of Deleted in Colorectal Cancer (DCC), a structurally similar Ig superfamily member to ROBO1, comprising either two Ig (DCC-Ig2) or four Ig (DCC-Ig4) domains and tagged with HA were constructed for use as negative controls (FIG. 6A, 5F right). Expression secretion of the constructs was confirmed by overexpressing the constructs in HEK293 cells and performing Western blots on cell lysates and media (FIG. 6B). […] Robo1-Ig5 as used herein was expressed in HEK-293 cells in the absence and presence of heparin (300 ng/ml). Media were collected from these ROBO1-Ig5 overexpressing cells on days two, four and six following plasmid transfection. Dot blot dilution assays of the collected media were performed to evaluate the relative secretion of this soluble ROBO1 ECD (FIG. 6C).
# [2] = system: NOTCH4; assay: Cell fractionation and Western blot for HES1 and NOTCH4-ICD in HC11 cells; type: cell-based, mouse; conditions: siR1+GSI, primed/differentiated HC11 cells, nuclear fraction
# Method: Notch receptor activation can be regulated through direct interactions with binding partners^24. […] To address this possibility, co-immunoprecipitation experiments were performed using MBA-MD-231 cells lysates, which express detectable levels of all four Notch receptors (NOTCH1-4). Endogenous ROBO1 co-immunoprecipitated with NOTCH4, but not […], NOTCH2 or NOTCH3 (FIG. 3H and data not shown). Next, the expression and subcellular localization of the NOTCH4 intracellular domain (N4-ICD) and HES1 was examined in control (Scr) and Robo1 (siR1) knockdown HC11 cells. Expression of Robo1 was inhibited in HC11 cells that were then primed for differentiation as described above. […] This effect was not observed in control Robo1 knockdown cells engineered to overexpress Robo1 (siR1+o/e) or cells treated with the γ-secretase inhibitor GSI (siR1+GSI) (FIGS. 3I-3K).
# To examine the effects of ROBO1-ECD fragments on Notch signaling, HC11 cells were treated with ROBO1-ECD fragments and Notch effector expression assessed. […] In addition, HC11 cells were treated with ROBO-Ig5 during differentiation. These cells were then fractionated and a Western blot performed to detect HES1 and NOTCH4-ICD (FIG. 8B).
# Protein lysates were prepared by directly lysing adherent cells in 1× sample buffer supplemented with 5% beta-mercaptoethanol and boiled for 5 minutes. Protein lysate was resolved by SDS-PAGE and transferred to a PVDF for 90 minutes at 400 mA or overnight at 30 mA. Primary antibodies were used at the concentration indicated in Table 1 and incubated overnight at 4° C. HRP conjugated secondary antibodies (Jackson Labs) were used at 1:3000 and incubated for 45 minutes at room temp. All proteins were detected using Clarity ECL (BioRad) using a BioRad Chemi-Doc MP Imager and quantified using ImageLab software as previously described a.
# [3] = system: HC11 cells; assay: HC11 dome assay (milk dome formation on differentiation in DIP media); type: cell-based, mouse; conditions: Robo1 KD HC11 cells plus GSI
# Method: To investigate ROBO1 function during alveologenesis, Robo1 gene expression was inhibited in HC11 cells (Robo1 KD). HC11 cells are a well-established, prolactin-responsive model of lactation,^19,20. Cells in which Robo1 gene expression was not inhibited are referred to as WT or Robo1+/+ herein. To measure milk production, cells were grown to confluence and then primed by treatment with epidermal growth factor (EGF, 10 ng/ml). The EGF is administered for three days in combination with charcoal-stripped fetal bovine serum, followed by one day of charcoal-stripped fetal bovine serum in the absence of EGF. These primed cells are then differentiated by treatment with dexamethasone (1 μg/ml), insulin (5 μg/ml) and prolactin (Prl, 5 μg/ml) media (DIP media) for between 3 and 5 days (FIG. 2A). Differentiation (Dif) results in the development of milk-filled domes (FIG. 2B). […] If the cells were left undifferentiated (Undif), there was little dome formation in either WT or Robo1−/− cells (FIG. 2B). Next, tissue from Robo1 knockout mice (Robo1−/−) and wild type mice (WT or Robo1+/+) mice was analyzed. Mammary glands were harvested from pregnant day 18 WT and Robo1−/− animals and alveologenesis analyzed by serially sectioning, carmine staining and then quantifying the area occupied by alveoli in sections located at top, middle and bottom portions of the tissue.
# Dome number formation in response to a titration of ROBO1 ECD fragments was quantified. […] A bovine ROBO1-Ig5 construct was also tested in this assay and, as with the rat constructs, more domes were formed in response to treatment with higher concentrations of […] (FIG. 7H).
# (§1) HC11 cells were grown in RPMI 1640 media (Gibco) supplemented with 10% fetal bovine serum (BioFluid Technologies), 5 μg/mL insulin (Sigma), and 10 ng/ml epidermal growth factor (EGF; Sigma). To induce differentiation in HC11 cells, confluent plates were given fresh media (RPMI 1640 media supplemented with 5% charcoal-stripped fetal bovine serum (BioFluid Technologies), 5 μg/mL insulin, and 10 ng/ml epidermal growth factor (EGF; Sigma) for 3 days followed by 24 hours of priming in priming medium (RPMI 1640 media supplemented with 5% charcoal-stripped fetal bovine serum (BioFluid Technologies), and 5 μg/mL insulin. After priming, DIP medium (RPMI 1640 media supplemented with 5% charcoal-stripped fetal bovine serum (BioFluid Technologies), 10^−6 M dexamethasone (Sigma), 5 μg/mL insulin, and 5 μg/mL prolactin (National Hormone and Peptide program) was added with fresh media every 24 hours.
# [4] = system: Notch signaling; assay: In vivo gamma secretase inhibitor treatment; RT-qPCR on FACS-purified alveolar progenitor cells; parameters: species or system mice; conditions: GSI-treated vs vehicle-treated
# Method: (§2) In further work, Notch signaling was inhibited to attempt to reverse the Robo1−/− phenotype. A γ-inhibitor that has been previously employed successfully in vivo to inhibit Notch in several different organs^26-28, including the mammary gland^29, was selected. Mature virgin animals were treated for […] with 10 mg/kg of the GSI or vehicle control^29 (FIG. 4C). After the treatment, mammary glands were harvested and analyzed by FACS and qPCR. It was observed that Robo1−/− mammary glands contain a higher number of alveolar progenitor cells relative to WT controls (FIG. 4D). […] GSI treatment had no effect on the number of alveolar progenitor cells in WT animals (FIG. 4D).
# Robo1−/− alveolar progenitor cells (AVPs) expressed higher levels of Hey1 and Hes1 with vehicle treatment compared to AVPs from vehicle-treated WT animals (FIG. 4E). […] Vehicle-treated Robo1−/− alveolar progenitor cells (AVPs) expressed lower levels of Elf5 than AVPs from vehicle-treated WT animals (FIG. 4E). This is consistent with the observation of lower levels of ELF5 expression in Robo1−/− compared to Robo1+/+ mammary glands (FIG. 2H), and lower Elf5 in Robo1 knockdown compared to control (Scr) HC11 cells (FIG. 3C). […] In the absence of Robo1, NOTCH4 is activated—an effect that is reversed by either pharmacological inhibition of Notch signaling (FIGS. 4E, 3E, 3F, 3I-K) or knockdown of Notch4 gene expression (FIGS. 3F,G).
# (§3) GSI inhibitor (R04929097; MedchemExpress) was orally administer at 10 mg/kg for 5 days as described^29. Mammary glands were harvest after 5 days of GSI or vehicle treatment and prepared for single cell analysis. Purified populations were collected and processed for RNA. Purified population numbers were analyzed using FlowJo.
# (§4) Total RNA was harvested from cells lysed in TRIzol reagent (Invitrogen) and phase separated according to manufacturer's protocol with an additional overnight RNA precipitation stem in ethanol (Macias et al., 2011). The RNA was further purified with TURBO DNase (Ambion) treatment. Total RNA quality was analyzed by agarose gel electrophoresis and quantified with an ND-1000 spectrophotometer (NanoDrop). cDNA libraries were prepared from 1 μg of total RNA using iScript cDNA synthesis kit (BioRad). Quantitative RT-PCR was performed in triplicates using light Cycler 480 SYBR Green I Master (Roche) and quantified using BioRad CFX'Connect Real-Time System and CFX Manager software (BioRad). Results were normalized to GAPDH.
# [5] = system: Notch; assay: In vivo gamma secretase inhibitor treatment; number of FACS-purified alveolar progenitor cells; parameters: species or system mice; conditions: 10 mg/kg GSI orally, mature virgin
# Method: as §2
# Mechanically dissociated inguinal and thoracic mammary fat pads were prepared into cell suspension for FACS as described^17. AVPs were isolated using FITC-CD14 (clone Sa14-2; BioLegend) and […] (clone 2B8; BioLegend) as described^14.
# as §3
# [6] = system: HC11 cells; assay: RT-qPCR of milk genes (WAP, Lalba) in differentiated HC11 cells; type: cell-based, mouse; conditions: siR1+GSI
# Method: To determine whether the promotion of dome formation also results in higher milk production, HC11 cells were differentiated in the presence or absence of ROBO1-ECD fragments that were added to cells simultaneously with DIP media. Cells were harvested and the expression of WAP and Lalba assessed by RT-qPCR. […] WAP expression levels were not increased in cells treated with DCC-Ig4 (FIG. 7K). Next, Western blot analysis of WAP and PLIN2 was performed on cells treated with ROBO1-Ig5 and ROBO1-Ecto.
# as §1
# as §4, with “Results were normalized to GAPDH.” left out
Compound,secretion of soluble ROBO1-Ig5 [1],secretion of soluble ROBO1-Ig5 ([1]; listed as Heparin),higher nuclear HES1 in Robo1 knockdown cells [2],higher nuclear NOTCH4 intracellular domain (N4-ICD) in Robo1 knockdown cells [2],decreased dome formation in Robo1 knockdown (KD) HC11 cells [3],Hes1 expression in AVPs ([4]; Robo1+/+ animals),Hey1 expression in AVPs ([4]; Robo1+/+ animals),Elf5 expression in AVPs ([4]; Robo1-/- animals),Hes1 expression in AVPs ([4]; Robo1-/- animals),Hey1 expression in AVPs ([4]; Robo1-/- animals),number of alveolar progenitor cells ([5]; Robo1-/- animals),number of alveolar progenitor cells ([5]; WT animals),decreased Lalba expression in Robo1 knockdown (siR1) HC11 cells [6],decreased WAP expression in Robo1 knockdown (siR1) HC11 cells [6]
heparin,trend of greater secretion,modestly increases,,,,,,,,,,,,
CC(C)(C(=O)NCC(F)(F)C(F)(F)F)C(=O)N[C@@H]1C(=O)Nc2ccccc2-c2ccccc21 [GSI],,,not observed; also recorded: rescues the effect,not observed; also recorded: rescues the effect,rescued,less expression; also recorded: decreased,less expression; also recorded: decreased,higher; also recorded: rescued,lower; also recorded: rescued,lower; also recorded: rescued,same number of alveolar progenitor cells as WT animals,no effect,rescued,rescued
